Test system: HIV envelope-immune murine T cells (lymph node cells of gp160-immunized mice)
Assay: Lymph node T-cell proliferation assay ([3H]thymidine incorporation, stimulation index)
Type: cell-based, mouse
Details: for S.I. (stimulation index, experimental cpm/control cpm): peptide 2 μM
Description: B10.BR/SgSn (H-2^k) and B10.D2/nSn (H-2^d) mice were obtained from the Jackson Laboratories (Bar Harbor, Me.). B10.S(9R)/Sg (H-2^t4) and B10.A(5R)/SgSn (H-2^i5) mice were bred at the NIH breeding colony from breeding pairs obtained from D. J. Stimpfling (Great Falls, Mont.) and from Jackson Laboratories. Mice from the strain B10.S(9R) and B10.A(5R) were chosen because both I-A and I-E molecules of the H-2^s and H-2^b haplotypes are expressed in these recombinant strains, whereas I-E is not expressed in nonrecombinant H-2^b and H-2^s mice.
Mice were immunized s.c. with 10-30 ug of recombinant gp160 1:1 in complete Freund's adjuvant (CFA) at the base of the tail. (The dose was determined according to the purity of the gp160 preparation.) Eight to ten days later, periaortic and inguinal lymph nodes were removed and prepared in a single-cell suspension in complete T-cell medium in accordance with the method of Berkower et al, 1984, J. Immunol., 132:1370. Lymph node cells at 4×10^5 cells per well were added to each well of flat-bottomed 96-well microtiter plates (Costar, Cambridge, Mass.). The 44 peptides were added to the wells to make a final volume of 0.2 ml of medium, and each peptide was tested in triplicate. On the fourth day of culture, 1 uCi of [^3 H]thymidine (6.7 Ci/mmol; New England Nuclear, Boston, Mass.) was added to each well. Eighteen hours later, […] incorporation into DNA, as a measure of proliferation, was determined using liquid scintillation counting. The stimulation index represents a ratio of experimental counts over background counts without antigen.
Mice of the H-2^k, H-2^d, H-^i5, and H-2^t4 haplotypes were immunized s.c. in the tail with recombinant gp160 in CFA at a dose of 20-30 ug per mouse. Eight to ten days later the mice were sacrificed, the periaortic and inguinal lymph nodes were isolated, and proliferation of lymph node cells in the presence or absence of antigen was determined as described herein supra.

WDQSLKPCVKLTPLCV [HP-8, residues 119-134 of HIV envelope]
S.I. (stimulation index, experimental cpm/control cpm) (B10.A(5R) H-2^i5 mice): 1.51 | S.I. (stimulation index, experimental cpm/control cpm) (B10.BR H-2^k mice): 2.24 | S.I. (stimulation index, experimental cpm/control cpm) (B10.D2 H-2^d mice): 1.68 | S.I. (stimulation index, experimental cpm/control cpm) (B10.S(9R) H-2^t4 mice): 1.23 | T-cell proliferative response (in words) (H-2^k mice, initial screening): diminishing response

Reference: patent US5030449A, “Synthetic vaccine against AIDS virus” (The United States of America as represented by the …, priority 1988, dated 1991)
